According to patent US4011307A, “Production of ^203 Pb-tris-hydroxymethyl amino methane” (The United States of America as represented by the United …, priority 1976, dated 1977):

What was measured:
[1] = test system: tissues of hamsters with eye melanoma; assay: Distribution of carrier-free lead-203 tris in tissue at various times; type: in vivo, hamster
Method: The ^203 Pb-tris as described herein was injected in a relatively large number of mice and hamsters which were tumor bearing animals. […]

melanomas, tumors = assay: Localization / tissue distribution study in tumor bearing animals; type: in vivo, mice and hamsters
Method: The ^203 Pb-tris as described herein was injected in a relatively large number of mice and hamsters which were tumor bearing animals.

[2] = Toxicity effects from the presence of lead in the blood stream; type: in vivo; details: near carrier-free lead-203 complexed with tris
tumors = details: previous attempts reported; cited from earlier work

In the case of “Lead-203 tris-hydroxymethyl aminomethane”, the “Distribution, Blood” value ([1]; Time 1, 60 min) is reported as 3.870 Percent Uptake per Gram of Tis, the “Distribution, Blood” value ([1]; Time 3, 180 min) is reported as 3.635 Percent Uptake per Gram of Tis and the “Distribution, Blood” value ([1]; Time 6, 360 min) is reported as 5.847 Percent Uptake per Gram of Tis. For the same substance, the “Distribution, Blood” value ([1]; Time 24, 1440 min) was 3.007 Percent Uptake per Gram of Tis, the “Distribution, Blood” value ([1]; Time 72, 4320 min) was 3.792 Percent Uptake per Gram of Tis and the “Distribution, Blood” value ([1]; Time 144, 8640 min) was 0.852 Percent Uptake per Gram of Tis. For the same substance, the “Distribution, Bone” value ([1]; Time 1, 60 min) was 3.977 Percent Uptake per Gram of Tis, the “Distribution, Bone” value ([1]; Time 3, 180 min) was 3.991 Percent Uptake per Gram of Tis and the “Distribution, Bone” value ([1]; Time 6, 360 min) was 5.320 Percent Uptake per Gram of Tis. The “Distribution, Bone” value ([1]; Time 24, 1440 min) was 5.342 Percent Uptake per Gram of Tis, the “Distribution, Bone” value ([1]; Time 72, 4320 min) was 9.761 Percent Uptake per Gram of Tis and the “Distribution, Bone” value ([1]; Time 144, 8640 min) was 5.757 Percent Uptake per Gram of Tis. The “Distribution, Choroid” value ([1]; Time 1, 60 min) was 1.109 Percent Uptake per Gram of Tis, the “Distribution, Choroid” value ([1]; Time 3, 180 min) was 0.950 Percent Uptake per Gram of Tis and the “Distribution, Choroid” value ([1]; Time 6, 360 min) was 0.337 Percent Uptake per Gram of Tis. The “Distribution, Choroid” value ([1]; Time 24, 1440 min) was 0.361 Percent Uptake per Gram of Tis, the “Distribution, Choroid” value ([1]; Time 72, * 4 animals, 4320 min) was 0.127 Percent Uptake per Gram of Tis and the “Distribution, Choroid” value ([1]; Time 144, 8640 min) was 0.131 Percent Uptake per Gram of Tis. For the same substance, the “Distribution, Cornea” value ([1]; Time 1) was 0.834 Percent Uptake per Gram of Tis, the “Distribution, Cornea” value ([1]; Time 3) was 0.173 Percent Uptake per Gram of Tis and the “Distribution, Cornea” value ([1]; Time 6) was 0.891 Percent Uptake per Gram of Tis. For the same substance, the “Distribution, Cornea” value ([1]; Time 24) was 0.200 Percent Uptake per Gram of Tis, the “Distribution, Cornea” value ([1]; Time 72, * 4 animals) was 0.084 Percent Uptake per Gram of Tis and the “Distribution, Cornea” value ([1]; Time 144) was 0.062 Percent Uptake per Gram of Tis. The “Distribution, Gonads” value ([1]; Time 1, 60 min) was 2.076 Percent Uptake per Gram of Tis, the “Distribution, Gonads” value ([1]; Time 3, 180 min) was 0.238 Percent Uptake per Gram of Tis and the “Distribution, Gonads” value ([1]; Time 6, 360 min) was 0.663 Percent Uptake per Gram of Tis. For the same substance, the “Distribution, Gonads” value ([1]; Time 24, 1440 min) was 0.164 Percent Uptake per Gram of Tis, the “Distribution, Gonads” value ([1]; Time 144, 8640 min) was 0.079 Percent Uptake per Gram of Tis and the “Distribution, Intestines” value ([1]; Time 1, 60 min) was 0.841 Percent Uptake per Gram of Tis. For the same substance, the “Distribution, Intestines” value ([1]; Time 3, 180 min) was 0.653 Percent Uptake per Gram of Tis, the “Distribution, Intestines” value ([1]; Time 6, 360 min) was 1.593 Percent Uptake per Gram of Tis and the “Distribution, Intestines” value ([1]; Time 24, 1440 min) was 1.664 Percent Uptake per Gram of Tis. The “Distribution, Intestines” value ([1]; Time 72, * 4 animals, 4320 min) was 2.064 Percent Uptake per Gram of Tis, the “Distribution, Intestines” value ([1]; Time 144, 8640 min) was 0.217 Percent Uptake per Gram of Tis and the “Distribution, Kidney” value ([1]; Time 1, 60 min) was 25.32 Percent Uptake per Gram of Tis. The “Distribution, Kidney” value ([1]; Time 3, 180 min) was 18.156 Percent Uptake per Gram of Tis, the “Distribution, Kidney” value ([1]; Time 6, 360 min) was 17.703 Percent Uptake per Gram of Tis and the “Distribution, Kidney” value ([1]; Time 24, 1440 min) was 10.508 Percent Uptake per Gram of Tis. For the same substance, the “Distribution, Kidney” value ([1]; Time 72, 4320 min) was 17.443 Percent Uptake per Gram of Tis, the “Distribution, Kidney” value ([1]; Time 144, 8640 min) was 3.904 Percent Uptake per Gram of Tis and the “Distribution, Lens” value ([1]; Time 1, 60 min) was 0.017 Percent Uptake per Gram of Tis. For the same substance, the “Distribution, Lens” value ([1]; Time 3, 180 min) was 0.023 Percent Uptake per Gram of Tis, the “Distribution, Lens” value ([1]; Time 6, 360 min) was 0.021 Percent Uptake per Gram of Tis and the “Distribution, Lens” value ([1]; Time 24, 1440 min) was 0.005 Percent Uptake per Gram of Tis. The “Distribution, Lens” value ([1]; Time 72, * 4 animals, 4320 min) was 0.006 Percent Uptake per Gram of Tis, the “Distribution, Lens” value ([1]; Time 144, 8640 min) was 0.005 Percent Uptake per Gram of Tis and the “Distribution, Liver” value ([1]; Time 1, 60 min) was 5.463 Percent Uptake per Gram of Tis. For the same substance, the “Distribution, Liver” value ([1]; Time 3, 180 min) was 4.273 Percent Uptake per Gram of Tis, the “Distribution, Liver” value ([1]; Time 6, 360 min) was 7.188 Percent Uptake per Gram of Tis and the “Distribution, Liver” value ([1]; Time 24, 1440 min) was 3.729 Percent Uptake per Gram of Tis. The “Distribution, Liver” value ([1]; Time 72, 4320 min) was 4.841 Percent Uptake per Gram of Tis, the “Distribution, Liver” value ([1]; Time 144, 8640 min) was 2.331 Percent Uptake per Gram of Tis and the “Distribution, Melanoma-Eye” value ([1]; Time 1, 60 min) was 1.048 Percent Uptake per Gram of Tis. For the same substance, the “Distribution, Melanoma-Eye” value ([1]; Time 3, 180 min) was 0.976 Percent Uptake per Gram of Tis, the “Distribution, Melanoma-Eye” value ([1]; Time 6, 360 min) was 1.609 Percent Uptake per Gram of Tis and the “Distribution, Melanoma-Eye” value ([1]; Time 24, 1440 min) was 1.314 Percent Uptake per Gram of Tis. The “Distribution, Melanoma-Eye” value ([1]; Time 72, * 4 animals, 4320 min) was 0.724 Percent Uptake per Gram of Tis, the “Distribution, Melanoma-Eye” value ([1]; Time 144, 8640 min) was 0.821 Percent Uptake per Gram of Tis and the “Distribution, Melanoma-Skin” value ([1]; Time 1, 60 min) was 1.095 Percent Uptake per Gram of Tis. The “Distribution, Melanoma-Skin” value ([1]; Time 3, 180 min) was 1.051 Percent Uptake per Gram of Tis, the “Distribution, Melanoma-Skin” value ([1]; Time 6, 360 min) was 1.209 Percent Uptake per Gram of Tis and the “Distribution, Melanoma-Skin” value ([1]; Time 24, 1440 min) was 0.845 Percent Uptake per Gram of Tis. The “Distribution, Melanoma-Skin” value ([1]; Time 72, 4320 min) was 1.010 Percent Uptake per Gram of Tis, the “Distribution, Melanoma-Skin” value ([1]; Time 144, 8640 min) was 0.749 Percent Uptake per Gram of Tis and the “Distribution, Muscle” value ([1]; Time 1) was 0.159 Percent Uptake per Gram of Tis. For the same substance, the “Distribution, Muscle” value ([1]; Time 3) was 0.100 Percent Uptake per Gram of Tis, the “Distribution, Muscle” value ([1]; Time 6) was 0.090 Percent Uptake per Gram of Tis and the “Distribution, Muscle” value ([1]; Time 24) was 0.026 Percent Uptake per Gram of Tis. For the same substance, the “Distribution, Muscle” value ([1]; Time 72) was 0.041 Percent Uptake per Gram of Tis, the “Distribution, Muscle” value ([1]; Time 144, 8640 min) was 0.027 Percent Uptake per Gram of Tis and the “Distribution, Normal-Eye” value ([1]; Time 1, 60 min) was 0.200 Percent Uptake per Gram of Tis. For the same substance, the “Distribution, Normal-Eye” value ([1]; Time 3, 180 min) was 0.086 Percent Uptake per Gram of Tis, the “Distribution, Normal-Eye” value ([1]; Time 6, 360 min) was 0.111 Percent Uptake per Gram of Tis and the “Distribution, Normal-Eye” value ([1]; Time 24, 1440 min) was 0.054 Percent Uptake per Gram of Tis. The “Distribution, Normal-Eye” value ([1]; Time 72, 4320 min) was 0.084 Percent Uptake per Gram of Tis, the “Distribution, Normal-Eye” value ([1]; Time 144, 8640 min) was 0.047 Percent Uptake per Gram of Tis and the “Distribution, Normal-Skin” value ([1]; Time 1, 60 min) was 0.401 Percent Uptake per Gram of Tis. The “Distribution, Normal-Skin” value ([1]; Time 3, 180 min) was 0.256 Percent Uptake per Gram of Tis, the “Distribution, Normal-Skin” value ([1]; Time 6, 360 min) was 0.286 Percent Uptake per Gram of Tis and the “Distribution, Normal-Skin” value ([1]; Time 24, 1440 min) was 0.090 Percent Uptake per Gram of Tis. The “Distribution, Normal-Skin” value ([1]; Time 72, 4320 min) was 0.122 Percent Uptake per Gram of Tis, the “Distribution, Normal-Skin” value ([1]; Time 144, 8640 min) was 0.071 Percent Uptake per Gram of Tis and the “Distribution, Retina” value ([1]; Time 1, 60 min) was 0.169 Percent Uptake per Gram of Tis. For the same substance, the “Distribution, Retina” value ([1]; Time 3, 180 min) was 0.074 Percent Uptake per Gram of Tis, the “Distribution, Retina” value ([1]; Time 6, 360 min) was 0.251 Percent Uptake per Gram of Tis and the “Distribution, Retina” value ([1]; Time 24, 1440 min) was 0.206 Percent Uptake per Gram of Tis. For the same substance, the “Distribution, Retina” value ([1]; Time 72, * 4 animals, 4320 min) was 0.091 Percent Uptake per Gram of Tis, the “Distribution, Retina” value ([1]; Time 144, 8640 min) was 0.127 Percent Uptake per Gram of Tis and the “Distribution, Vitreous” value ([1]; Time 1, 60 min) was 0.031 Percent Uptake per Gram of Tis. For the same substance, the “Distribution, Vitreous” value ([1]; Time 3, 180 min) was 0.028 Percent Uptake per Gram of Tis, the “Distribution, Vitreous” value ([1]; Time 6, 360 min) was 0.036 Percent Uptake per Gram of Tis and the “Distribution, Vitreous” value ([1]; Time 24, 1440 min) was 0.031 Percent Uptake per Gram of Tis. For the same substance, the “Distribution, Vitreous” value ([1]; Time 72, * 4 animals, 4320 min) was 0.014 Percent Uptake per Gram of Tis, the “Distribution, Vitreous” value ([1]; Time 144, 8640 min) was 0.018 Percent Uptake per Gram of Tis and the “Ability to localize in melanomas” value (melanomas, tumors; extensive studies) was “has the ability to localize in melanomas, especially those of the eye”. For the same substance, the “Uptake of ^203 Pb by the tumors” value (melanomas, tumors; tumor bearing mice and hamsters, injected, tissue distribution) was “selective uptake by the tumors” and the “Toxicity effects from the presence of lead in the blood stream” value [2] was “avoided or minimized”.
For lead, the “Outcome of previous attempts to use lead as agent for the treatment of tumors” value (tumors) is listed as “apparently failed to produce useful results due to the toxicity of lead in the bloodstream”.
